Assays:
redroot pigweed [1] = assay: Test Example 1: foliage treatment, upland pot test; format: in vivo, Amaranthus retroflexus L.; settings: active ingredient 500 g/ha, observed 18th to 23rd day, 0 = non-treated, 100 = complete kill
barnyardgrass [2] = assay: Test Example 3: paddy pot test, application under submerged conditions; format: in vivo, Echinochloa crus-galli L.; settings: active ingredient 500 g/ha; submerged application at 0.5 leaf stage; visually observed 14 days after application; 0 = non-treated, 100 = complete kill
Method in brief: (§1)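 Visual growth-control rating (0 = untreated, 100 = complete kill) 14 days after treatment. The formulated compound, as a diluted wettable powder or emulsifiable concentrate, went into 3–4 cm flood water at a predetermined active-ingredient dose once the weeds reached 0.5 leaf stage (wapato: primary leaf stage).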

prickly sida [3] = assay: Test Example 1: foliage treatment, upland pot test; format: in vivo, Sida spinosa L.; settings: active ingredient 500 g/ha, observed 18th to 23rd day, 0 = non-treated, 100 = complete kill
crabgrass [4] = assay: Test Example 1: foliage treatment, upland pot test; format: in vivo, Digitaria sanguinalis L.; settings: active ingredient 500 g/ha, observed 18th to 23rd day, 0 = non-treated, 100 = complete kill
barnyardgrass [5] = assay: Test Example 1: foliage treatment, upland pot test; format: in vivo, Echinochloa crus-galli L.; settings: active ingredient 500 g/ha, observed 18th to 23rd day, 0 = non-treated, 100 = complete kill
Method in brief: (§2)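 Upland pot test, foliar. Soybean 0.1–0.4 / wheat 1.3–2.4 / rice 1.2–2.6 / barnyardgrass 1.3–2.8 leaf stage at spraying; 500 L/ha carrier, 0.1% (v/v) spreader. Visual % control, 0 untreated to 100 dead, days 18–23.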

redroot pigweed [6] = assay: Test Example 2: soil surface treatment, upland pot test; format: in vivo, Amaranthus retroflexus L.; settings: active ingredient 500 g/ha, observed 20th to 28th day
Method in brief: (§3)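 Sowing, then next-day soil-surface spray of formulated test compound (fixed a.i. amount, 1,500 L/ha spray volume); visual evaluation of growth inhibition, 0–100%, three to four weeks (days 20–28) after application.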

velvetleaf [7] = assay: as above; format: in vivo, Abutilon theophrasti MEDIC.; settings: active ingredient 500 g/ha, observed 20th to 28th day
Method in brief: as §3

corn [8] = assay: Test Example 1: foliage treatment, upland pot test; format: in vivo, Zea mays L.; settings: crop, active ingredient 500 g/ha, observed 18th to 23rd day, 0 = non-treated, 100 = complete kill
Method in brief: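 In this upland pot foliage test, corn plants at 2.1 to 3.2 leaf stages were sprayed by a small size sprayer. The spray was a conventionally formulated wettable powder or emulsifiable concentrate weighed to a set active ingredient amount, diluted in water at 500 L/ha, plus 0.1% (v/v) agricultural spreader. Visual assessment on days 18 to 23 gave growth controlling degree (%), where 0 equals untreated and 100 means complete kill.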

prickly sida [9] = assay: Test Example 2: soil surface treatment, upland pot test; format: in vivo, Sida spinosa L.; settings: active ingredient 500 g/ha, observed 20th to 28th day
Method in brief: as §3

wheat [10] = assay: Test Example 1: foliage treatment, upland pot test; format: in vivo, Triticum spp.; settings: crop, active ingredient 500 g/ha, observed 18th to 23rd day, 0 = non-treated, 100 = complete kill
Text: Upland field soil was put into a 1/170,000 ha pot, and seed of various plants were sown. Then, when the plants reached predetermined leaf stages ((1) barnyardgrass: 1.3 to 2.8 leaf stages, (2) crabgrass: 1.0 to 2.8 leaf stages, (3) green foxtail: 1.3 to 2.6 leaf stages, (4) redroot pigweed: 0.1 to 1.2 leaf stages, (5) prickly sida: 0.1 to 1.2 leaf stages, (6) velvetleaf: 0.1 to 1.2 leaf stages, (7) tall morningglory: 0.1 to 1.5 leaf stages, (8) rice: 1.2 to 2.6 leaf stages, (9) wheat: 1.3 to 2.4 leaf stages, (10) corn, 2.1 to 3.2 leaf stages, (11) soybean: 0.1 to 0.4 leaf stage), a wettable powder or emulsifiable concentrate having the compound of the present invention formulated in accordance with a usual formulation method, was weighed so that the active ingredient would be a predetermined amount, and diluted with water in an amount of 500 L/ha. To the diluted solution, 0.1% (v/v) of agricultural spreader was added. The herbicide thus adjusted was applied by a small size sprayer for foliage treatment. On the 18th to 23rd days after the application of the herbicide, the growth of the respective plants was visually observed, and the herbicidal effects were evaluated by the growth controlling degrees (%) ranging from 0 (equivalent to the non-treated plot) to 100 (complete kill), whereby the results shown in Table 3, were obtained.

soybean [11] = assay: Test Example 1: foliage treatment, upland pot test; format: in vivo, Glycine max Merr.; settings: crop, active ingredient 500 g/ha, observed 18th to 23rd day, 0 = non-treated, 100 = complete kill
Method in brief: as §2

rice [12] = assay: Test Example 1: foliage treatment, upland pot test; format: in vivo, Oryza sativa L.; settings: crop, active ingredient 500 g/ha, observed 18th to 23rd day, 0 = non-treated, 100 = complete kill
Method in brief: as §2

velvetleaf [13] = assay: Test Example 1: foliage treatment, upland pot test; format: in vivo, Abutilon theophrasti MEDIC.; settings: active ingredient 500 g/ha, observed 18th to 23rd day, 0 = non-treated, 100 = complete kill
crabgrass [14] = assay: Test Example 2: soil surface treatment, upland pot test; format: in vivo, Digitaria sanguinalis L.; settings: active ingredient 500 g/ha, observed 20th to 28th day
Method in brief: as §3

corn [15] = assay: as above; format: in vivo, Zea mays L.; settings: active ingredient 500 g/ha, observed 20th to 28th day
Method in brief: as §3

green foxtail [16] = assay: as above; format: in vivo, Setaria viridis L.; settings: active ingredient 500 g/ha, observed 20th to 28th day
Method in brief: as §3

rice (var. Nihonbare) = assay: Test Example 3: paddy pot test, transplanted rice; format: in vivo, Oryza sativa L.; settings: active ingredient 500 g/ha, applied 4th day after transplantation, visually observed 21st day after application, 0 = non-treated, 100 = complete kill
Method in brief: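 Rice (var. Nihonbare) at 2 leaf stage transplanted 3 cm deep into puddled paddy soil under 3–4 cm flooding; on day 4 after transplanting, diluted wettable powder or emulsifiable concentrate applied by pipette under submerged conditions at a set active-ingredient dose. Growth scored visually 21 days after application, 0 (untreated) to 100 (complete kill) %.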

green foxtail [17] = assay: Test Example 1: foliage treatment, upland pot test; format: in vivo, Setaria viridis L.; settings: active ingredient 500 g/ha, observed 18th to 23rd day, 0 = non-treated, 100 = complete kill
rice [18] = assay: Test Example 2: soil surface treatment, upland pot test; format: in vivo, Oryza sativa L.; settings: active ingredient 500 g/ha, observed 20th to 28th day
Method in brief: as §3

soybean [19] = assay: as above; format: in vivo, Glycine max Merr.; settings: active ingredient 500 g/ha, observed 20th to 28th day
Method in brief: as §3

japanese ribbon wapato = assay: Test Example 3: paddy pot test, application under submerged conditions; format: in vivo, Sagittaria pygniaea; settings: active ingredient 500 g/ha; submerged application at primary leaf stage; visually observed 14 days after application; 0 = non-treated, 100 = complete kill
Method in brief: as §1

japanese bulrush = assay: as above; format: in vivo, Scirpus juncoides; settings: active ingredient 500 g/ha; submerged application at 0.5 leaf stage; visually observed 14 days after application; 0 = non-treated, 100 = complete kill
Method in brief: as §1

barnyardgrass [20] = assay: Test Example 2: soil surface treatment, upland pot test; format: in vivo, Echinochloa crus-galli L.; settings: active ingredient 500 g/ha, observed 20th to 28th day
Method in brief: as §3

wheat [21] = assay: as above; format: in vivo, Triticum spp.; settings: active ingredient 500 g/ha, observed 20th to 28th day
Method in brief: as §3

Structure (SMILES)	Growth controlling degree (%) Redroot pigweed (redroot pigweed [1]) [%]	Growth controlling degree (%) Barnyardgrass (barnyardgrass [2]) [%]	Growth controlling degree (%) Prickly sida (prickly sida [3]) [%]	Growth controlling degree (%) Crabgrass (crabgrass [4]) [%]	Growth controlling degree (%) Barnyardgrass (barnyardgrass [5]) [%]	Growth controlling degree (%) Redroot pigweed (redroot pigweed [6]) [%]	Growth controlling degree (%) Velvetleaf (velvetleaf [7]) [%]	Growth controlling degree (%) Prickly sida (prickly sida [9]) [%]	Growth controlling degree (%) wheat (wheat [10]) [%]	Growth controlling degree (%) Soybean (soybean [11]) [%]	Growth controlling degree (%) Rice (rice [12]) [%]	Growth controlling degree (%) Velvetleaf (velvetleaf [13]) [%]	Growth controlling degree (%) Crabgrass (crabgrass [14]) [%]	Growth controlling degree (%) Corn (corn [15]) [%]	Growth controlling degree (%) Green foxtail (green foxtail [16]) [%]	Growth controlling degree (%) Rice (rice (var. Nihonbare)) [%]	Growth controlling degree (%) Green foxtail (green foxtail [17]) [%]	Growth controlling degree (%) Rice (rice [18]) [%]	Growth controlling degree (%) Japanese bulrush (japanese bulrush) [%]	Growth controlling degree (%) Barnyardgrass (barnyardgrass [20]) [%]	also measured
COc1ccc(C=CC(=O)N(C)C(c2cnccc2C(F)(F)F)C(C)C)cc1 (centres unmarked) [I-182]	50	100	70	80	80	30	50	10	10	70	20	50	100	10	95	0	50	50	98	90	Growth controlling degree (%) Corn (corn [8]): 60%; Growth controlling degree (%) Soyabean (soybean [19]): 10%; Growth controlling degree (%) Japanese ribbon wapato (japanese ribbon wapato): 80%
CCCC(=O)N(C)C(c1cnccc1C(F)(F)F)C(C)C (centres unmarked) [I-189, N-methyl-N-[2-methyl-1-(4-trifluoromethylpyridin-3-yl)propyl]butanamide]	80	100	85	98	90	100	90	90	70	80	80	70	100	50	100	95	90	100	98	100	Growth controlling degree (%) Corn (corn [8]): 90%; Growth controlling degree (%) Soyabean (soybean [19]): 95%; Growth controlling degree (%) Japanese ribbon wapato (japanese ribbon wapato): 95%
C=CC(=O)N(C)C(c1cnccc1C(F)(F)F)C(C)C (centres unmarked) [I-190]	70	100	70	80	80	80	50	90	70	60	70	60	100	10	100	95	80	98	98	100	Growth controlling degree (%) Corn (corn [8]): 70%; Growth controlling degree (%) Soyabean (soybean [19]): 30%; Growth controlling degree (%) Japanese ribbon wapato (japanese ribbon wapato): 90%
CC(C)C(c1cnccc1C(F)(F)F)N(C)C(=O)Cc1csc2ccccc12 (centres unmarked) [I-192]	80	100	90	–	80	10	0	0	0	80	10	70	80	10	80	30	60	10	90	98	Growth controlling degree (%) wheat (wheat [21]): 0%
